# Data: publication PMC11042424, “Development of a First-in-Class RIPK1 Degrader to Enhance Antitumor Immunity” (Research Square, 2024)
# Molecular target: T1, RIPK1 and VHL (Homo sapiens, UniProt P40337+Q13546)
# T1 construct: Addgene backbone 87075 (RIPK1 vector, made in house) N273A; host or cells: HEK293T
# Assay: NanoBRET live-cell ternary complex assay
# Format: cell-based
# Conditions: HEK293 cells co-transfected with nLuc-RIPK1 and VHL-Halo
# Procedure: Figure 2 LD4172, a RIPK1 PROTAC, induces potent and highly specific degradation of RIPK1 in a panel of cell lines. A, Chemical structures of RIPK1 PROTAC, LD4172, and its negative control, LD4172-NC. […] B, Quantification of RIPK1 levels in both Jurkat and B16F10 cells treated with LD4172 at indicated concentrations for 24 h, followed by Western blotting. C, DC50 and Dmax of LD4172 in various human and mouse cell lines. DC50, the drug concentration causing 50% protein degradation; Dmax, the maximum level of protein degradation. D, RIPK1 degradation kinetics induced by LD4172 treatment (1 μM) and resynthesis kinetics upon washout of LD4172 in both Jurkat and B16F10 cells. […] G, Time-resolved fluorescence resonance energy transfer (TR-FRET) based biochemical binding assay for RIPK1. […] In total, ~10,000 proteins were quantified in the proteomics experiment. […]
# Human RIPK1 cDNA insert was cloned into pLenti6.2-ccdB-nLuc plasmid (87075, Addgene, a kind gift from Taipale Lab) using gateway cloning kit (11791020, Thermo) and standard protocol to obtain pLenti6.2-RIPK1-nLuc fusion vector. […] Immediately before reading the plate, prepare 4x concentrated NanoGlo nLuc substrate (N157, Promega) was prepared by diluting the stock into Opti-MEM 1,000-fold, and the NanoGlo substrate was then added into each well to bring the final concentration to 1x. […]
smiles,measurement,value
Cc1ncsc1-c1ccc([C@H](C)NC(=O)[C@@H]2C[C@@H](O)CN2C(=O)[C@@H](NC(=O)CCCCCCCCCCC(=O)NCCCn2cc(-c3ccc4c(c3)CCN4C(=O)Cc3cccc(OC(F)(F)F)c3)c3c(N)ncnc32)C(C)(C)C)cc1 [LD4172],"ternary complex formation, NanoBRET between RIPK1 and VHL",induced NanoBRET between RIPK1 and VHL
